Laboratory results published in patent US8445636B2, “Antimicrobial and anticancer lipopeptides” (Yeda Research & Development Co. Ltd., priority 2003, dated 2013).
Converted amounts (≈) assume the structure as drawn. Like-named read-outs stand apart in the source and are kept apart here. Non-standard residues stand in square brackets, D forms with d. Residues, ends and D or L forms follow the SMILES beside them. *: point of attachment. Palmitoyl = CCCCCCCCCCCCCCCC(=O)*; Lauroyl = CCCCCCCCCCCC(=O)*

Assays:
Type in all cases: cell-based
[1] = test system: Acinetobacter baumannii ATCC 19606
In short: (§1)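 MIC = lowest concentration with 100% growth inhibition, judged from A600 after 18-20 h incubation at 37° C. Bacteria at 1×10^6 CFU/ml in LB (pH 7.4 unless pH 5.5 stated) combined with equal volume of serially 2-fold diluted lipopeptide.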

E. coli ATCC 35218 = conditions: ATCC 35218, pH 7.4
In short: as §1

[2] = test system: Escherichia coli ATCC 25922
In short: as §1

[3] = test system: Pseudomonas aeruginosa ATCC 27853
In short: as §1

[4] = test system: Staphylococcus aureus ATCC 6538P
In short: as §1

E. aerogenes ATCC 35029 = conditions: ATCC 35029, pH 7.4
In short: as §1

[5] = test system: Cryptococcus neoformans ATCC 66031; assay: microbe, parasite or virus in culture
In short: (§2)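 In this assay, each strain, prepared at 1×10^4 CFU/ml before mixing, met serial twofold peptide dilutions in RPMI 1640 buffered with 0.165 M MOPS. Unless noted, pH was 7.4; a pH 5.5 condition was also run. After 24-48 h incubation (35 °C, agitated), wells were scored at 620 nm for total inhibition.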

[6] = test system: Candida albicans ATCC 10231; assay: microbe, parasite or virus in culture
In short: as §2

[7] = Cytotoxicity, XTT viability, non-cancer cells; conditions: mouse, non-cancer cell line, 24 h incubation, read-out: LC50, 3T3
Method: Prostate cancer cell lines (CL1 and 22RV1; ATCC, USA) were grown in RPMI-1640 supplemented with 10% FCS (Biological Industries, Beit Haemek, Israel). N1H-3T3 mouse fibroblast cell line (ATCC, USA) was grown in DMEM supplemented with 10% bovine serum. To test cytotoxicity against the cancer cells, aliquots of medium containing 1×10^4 cells were distributed into a 96-well plate (Falcon). After one day, the media were replaced with 90 μl of fresh media and 10 μl of a solution containing different concentrations of the peptides. The plate was then incubated for 24 h before adding to each well 50 μl of XTT reaction solution (Biological Industries, Beit Haemek, Israel); viability was determined as previously described (Papo et al., (2003) J. Biol. Chem. 278:21018-23). The LC50 (concentration at which 50% of the cells die) for each peptide was obtained from the dose-dependent cell viability curves.

[8] = test system: Cryptococcus neoformans ATCC MYA-422; assay: microbe, parasite or virus in culture; conditions: ATCC MYA-422, pH 7.4; for MIC: read-out: Minimal Inhibitory Concentration, Cyrptococcus neoformans (ATCC MYA-422)
[9] = test system: Aspergillus fumigatus ATCC 26430; assay: microbe, parasite or virus in culture
E. coli D21 = test system: E. coli D21
M. laleus = conditions: Table 3, short lipopeptides; pH 7.4
In short: as §1

[10] = ATCC 10231, pH 7.4, read-out: Minimal Inhibitory Concentration, Candida Albicans (ATCC 10231)
[11] = ATCC 26430, pH 7.4, read-out: Minimal Inhibitory Concentration, Aspergillus Fomigatus (ATCC 26430)

CCCCCCCCCCCC(=O)N[C@H](CC(C)C)C(=O)N[C@@H](CCCCN)C(=O)N[C@@H](CCCCN)C(=O)N[C@H](CC(C)C)C(=O)N[C@H](CC(C)C)C(=O)N[C@@H](CCCCN)C(=O)N[C@@H](CCCCN)C(=O)N[C@H](CC(C)C)C(=O)N[C@H](CC(C)C)C(=O)N[C@@H](CCCCN)C(=O)N[C@@H](CCCCN)C(=O)N[C@H](CC(C)C)C(N)=O [lipopeptide 22, (CH3-(CH2)10-CO-)-D-Leu-Lys-Lys-D-Leu-D-Leu-Lys-Lys-D-Leu-D-Leu-Lys-Lys-D-Leu-NH2] (Lauroyl-[dL]KK[dL][dL]KK[dL][dL]KK[dL]-NH2)
Minimal inhibitory concentrations, A. baumannii ATCC 19606 ([1]; ATCC 19606, pH 5.5): 25 µM (≈ 41.2 µg/mL)
Minimal inhibitory concentrations, A. baumannii ATCC 19606 ([1]; ATCC 19606, pH 7.4): 25 µM (≈ 41.2 µg/mL)
Minimal Inhibitory Concentration, E. coli ATCC 35218 (E. coli ATCC 35218): 25 µM
Minimal inhibitory concentrations, E. Coli ATCC 25922 ([2]; ATCC 25922, pH 5.5): 50 µM (≈ 82.4 µg/mL)
Minimal inhibitory concentrations, E. Coli ATCC 25922 ([2]; ATCC 25922, pH 7.4): 75 µM (≈ 124 µg/mL)
Minimal inhibitory concentrations, P. Aeruginosa ATCC 27853 ([3]; ATCC 27853, pH 5.5): 12.5 µM (≈ 20.6 µg/mL)
Minimal Inhibitory Concentration, P. aeruginosa ATCC 27853 ([3]; ATCC 27853, pH 7.4): 25 µM
Minimal inhibitory concentrations, P. Aeruginosa ATCC 27853 ([3]; ATCC 27853, pH 7.4): 25 µM (≈ 41.2 µg/mL)
Minimal inhibitory concentrations, S. aureus II ATCC 6538P ([4]; ATCC 6538, pH 5.5): >100 µM
Minimal Inhibitory Concentration, S. aureus ATCC 6538P ([4]; ATCC 6538, pH 7.4): 12.5 µM
Minimal inhibitory concentrations, S. aureus II ATCC 6538P ([4]; ATCC 6538, pH 7.4): 3.125 µM (≈ 5.15 µg/mL)
Minimal Inhibitory Concentration, E. aerogenes ATCC 35029 (E. aerogenes ATCC 35029): 50 µM
MIC ([5]; ATCC 66031, pH 5.5, read-out: Minimal inhibitory concentrations, C. Neofor. With serum): 1.56 µM (≈ 2.57 µg/mL)
MIC ([5]; ATCC 66031, pH 5.5, read-out: Minimal inhibitory concentrations, C. Neofor. Without serum): <0.78 µM
MIC ([5]; ATCC 66031, pH 7.4, read-out: Minimal inhibitory concentrations, C. Neofor. With serum): <0.78 µM
MIC ([5]; ATCC 66031, pH 7.4, read-out: Minimal inhibitory concentrations, C. Neofor. Without serum): <0.78 µM
MIC ([6]; ATCC 10231, pH 5.5, read-out: Minimal inhibitory concentrations, C. Albicans With serum): >100 µM
MIC ([6]; ATCC 10231, pH 5.5, read-out: Minimal inhibitory concentrations, C. Albicans Without serum): 100 µM (≈ 165 µg/mL)
Minimal Inhibitory Concentration, C. albicans ATCC 10231 ([6]; ATCC 10231, pH 7.4): 12.5 µM
MIC ([6]; ATCC 10231, pH 7.4, read-out: Minimal inhibitory concentrations, C. Albicans With serum): 100 µM (≈ 165 µg/mL)
MIC ([6]; ATCC 10231, pH 7.4, read-out: Minimal inhibitory concentrations, C. Albicans Without serum): 3.125 µM (≈ 5.15 µg/mL)
CC50 at 24 h [7]: 50 µM
Minimal Inhibitory Concentration, C. neoformans ATCC MYA-422 [8]: 0.78 µM
MIC ([9]; ATCC 26430, pH 5.5, read-out: Minimal inhibitory concentrations, A. Fumig. With serum): 100 µM (≈ 165 µg/mL)
MIC ([9]; ATCC 26430, pH 5.5, read-out: Minimal inhibitory concentrations, A. Fumig. Without serum): 75 µM (≈ 124 µg/mL)
Minimal Inhibitory Concentration, A. fumigatus ATCC 26430 ([9]; ATCC 26430, pH 7.4): 6.25 µM
MIC ([9]; ATCC 26430, pH 7.4, read-out: Minimal inhibitory concentrations, A. Fumig. With serum): 50 µM (≈ 82.4 µg/mL)
MIC ([9]; ATCC 26430, pH 7.4, read-out: Minimal inhibitory concentrations, A. Fumig. Without serum): 12.5 µM (≈ 20.6 µg/mL)
Minimal inhibitory concentrations, E. Coli D21 (E. coli D21; D21, pH 5.5): 25 µM (≈ 41.2 µg/mL)
Minimal inhibitory concentrations, E. Coli D21 (E. coli D21; D21, pH 7.4): 25 µM (≈ 41.2 µg/mL)

CCCCCCCCCCCCCCCC(=O)N[C@@H](CCCCN)C(=O)N[C@H](CCCCN)C(N)=O [PA-KK, Palmitoyl-Lys-D-Lys-NH2]
Minimal Inhibitory Concentration, M. laleus (M. laleus): 3.12 µM
Minimal Inhibitory Concentration, A. baumannii ATCC 19606 ([1]; ATCC 19606, pH 7.4): 100 µM
Minimal Inhibitory Concentration, P. aeruginosa ATCC 27853 ([3]; ATCC 27853, pH 7.4): 100 µM
Minimal Inhibitory Concentration, S. aureus ATCC 6538P ([4]; ATCC 6538, pH 7.4): 6.25 µM
MIC [6, 10]: 12.5 µM (≈ 6.4 µg/mL)
MIC [8]: 2.5 µM (≈ 1.28 µg/mL)
MIC [9, 11]: 6.25 µM (≈ 3.2 µg/mL)
Minimal Inhibitory Concentration, E. coli-D21 (E. coli D21; D21, pH 7.4): 6.25 µM

CCCCCCCCCCCCCCCC(=O)N[C@@H](CCCCN)C(=O)N[C@@H](CC(C)C)C(=O)N[C@H](CC(C)C)C(=O)N[C@@H](CCCCN)C(N)=O [PA-KLLK, Palmitoyl-Lys-Leu-D-Leu-Lys-NH2] (Palmitoyl-KL[dL]K-NH2)
Minimal Inhibitory Concentration, M. laleus (M. laleus): 3.12 µM
Minimal Inhibitory Concentration, P. aeruginosa ATCC 27853 ([3]; ATCC 27853, pH 7.4): 100 µM
Minimal Inhibitory Concentration, S. aureus ATCC 6538P ([4]; ATCC 6538, pH 7.4): 3.12 µM
MIC [6, 10]: 6.25 µM (≈ 4.61 µg/mL)
MIC [8]: 1.56 µM (≈ 1.15 µg/mL)
MIC [9, 11]: 3.125 µM (≈ 2.31 µg/mL)
Minimal Inhibitory Concentration, E. coli-D21 (E. coli D21; D21, pH 7.4): 100 µM
